Test results taken from PubChem BioAssay AID2060906 (Molecular Pharmacology Branch, DTP, NCI, 2025).

Tested on: 485176-168-R4-J1-PDC complex spheroid growth
Assay: Anticancer human tumor 485176-168-R4-J1-PDC patient-derived pancreatic adenocarcinoma cell line growth inhibition [RAS]
Settings: for IC50: curve of first compound; for viability, T/C: stronger effect = lower value
Outline: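 Multi-cell-type spheroids: tumor cells plus HUVEC endothelial cells and mesenchymal stem cells. RAS-pathway inhibitors were combined with targeted agents, each dosed in half-log steps down from clinical Cmax, or from 10 microM when Cmax was unknown.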

[1] = second compound 0.000949 µM, first compound 0.0316 µM
[2] = second compound 0.000949 µM, first compound 0.1 µM
[3] = second compound 0.000949 µM, first compound 0.316 µM
[4] = second compound 0.000949 µM, first compound 1 µM
[5] = second compound 0.000949 µM, first compound 3.16 µM
[6] = second compound 0.000949 µM, first compound 10 µM
[7] = second compound 0.003 µM, first compound 0.0316 µM
[8] = second compound 0.003 µM, first compound 0.1 µM
[9] = second compound 0.003 µM, first compound 0.316 µM
[10] = second compound 0.003 µM, first compound 1 µM
[11] = second compound 0.003 µM, first compound 3.16 µM
[12] = second compound 0.003 µM, first compound 10 µM
[13] = second compound 0.00949 µM, first compound 0.0316 µM
[14] = second compound 0.00949 µM, first compound 0.1 µM
[15] = second compound 0.00949 µM, first compound 0.316 µM
[16] = second compound 0.00949 µM, first compound 1 µM
[17] = second compound 0.00949 µM, first compound 3.16 µM
[18] = second compound 0.00949 µM, first compound 10 µM
[19] = second compound 0.03 µM, first compound 0.0316 µM
[20] = second compound 0.03 µM, first compound 0.1 µM
[21] = second compound 0.03 µM, first compound 0.316 µM
[22] = second compound 0.03 µM, first compound 1 µM
[23] = second compound 0.03 µM, first compound 3.16 µM
[24] = second compound 0.03 µM, first compound 10 µM
[25] = second compound 0.0949 µM, first compound 0.0316 µM
[26] = second compound 0.0949 µM, first compound 0.1 µM
[27] = second compound 0.0949 µM, first compound 0.316 µM
[28] = second compound 0.0949 µM, first compound 1 µM
[29] = second compound 0.0949 µM, first compound 3.16 µM
[30] = second compound 0.0949 µM, first compound 10 µM
[31] = second compound 0.3 µM, first compound 0.0316 µM
[32] = second compound 0.3 µM, first compound 0.1 µM
[33] = second compound 0.3 µM, first compound 0.316 µM
[34] = second compound 0.3 µM, first compound 1 µM
[35] = second compound 0.3 µM, first compound 3.16 µM
[36] = second compound 0.3 µM, first compound 10 µM
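Also: spheroids exposed to compounds for seven days before readout.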
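For viability, T/C in this document: luminescence viability expressed relative to DMSO vehicle wells set as 100%.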

Compound `CC1(O)CCCC1n1c(=O)c(C(F)F)cc2cnc(NC3CCN(S(C)(=O)=O)CC3)nc21` (stereo unspecified) + C#Cc1c(F)ccc2cc(O)cc(-c3ncc4c(N5CC6CCC(C5)N6)nc(OCC56CCCN5CC(F)C6)nc4c3F)c12 has an IC50 (second compound 0.0316 µM) of 2.54 µM, an IC50 (second compound 0.1 µM) of 2.97 µM and an IC50 (second compound 0.316 µM) of 3.63 µM. The IC50 (second compound 1 µM) was 2.08 µM, the IC50 (second compound 3.16 µM) was 2.21 µM and the IC50 (second compound 10 µM) was 2.9 µM. It also gave a viability, T/C (second compound 0.0316 µM, first compound 0.0316 µM) of 95%, a viability, T/C (second compound 0.0316 µM, first compound 0.1 µM) of 66.2% and a viability, T/C (second compound 0.0316 µM, first compound 0.316 µM) of 60.5%. It also gave a viability, T/C (second compound 0.0316 µM, first compound 1 µM) of 79.6%, a viability, T/C (second compound 0.0316 µM, first compound 3.16 µM) of 44.1% and a viability, T/C (second compound 0.0316 µM, first compound 10 µM) of 2.88%. It also gave a viability, T/C (second compound 0.1 µM, first compound 0.0316 µM) of 78.7%, a viability, T/C (second compound 0.1 µM, first compound 0.1 µM) of 76.5% and a viability, T/C (second compound 0.1 µM, first compound 0.316 µM) of 68.7%. It also gave a viability, T/C (second compound 0.1 µM, first compound 1 µM) of 61.2%, a viability, T/C (second compound 0.1 µM, first compound 3.16 µM) of 53.6% and a viability, T/C (second compound 0.1 µM, first compound 10 µM) of 2.44%. The viability, T/C (second compound 0.316 µM, first compound 0.0316 µM) was 89.9%, the viability, T/C (second compound 0.316 µM, first compound 0.1 µM) was 72.2% and the viability, T/C (second compound 0.316 µM, first compound 0.316 µM) was 68.3%. It also gave a viability, T/C (second compound 0.316 µM, first compound 1 µM) of 66.9%, a viability, T/C (second compound 0.316 µM, first compound 3.16 µM) of 60.4% and a viability, T/C (second compound 0.316 µM, first compound 10 µM) of 3.62%. For the same compound, the viability, T/C (second compound 1 µM, first compound 0.0316 µM) was 91.5%, the viability, T/C (second compound 1 µM, first compound 0.1 µM) was 81.4% and the viability, T/C (second compound 1 µM, first compound 0.316 µM) was 66.8%. The viability, T/C (second compound 1 µM, first compound 1 µM) was 64.7%, the viability, T/C (second compound 1 µM, first compound 3.16 µM) was 47.2% and the viability, T/C (second compound 1 µM, first compound 10 µM) was 1.8%. For the same compound, the viability, T/C (second compound 3.16 µM, first compound 0.0316 µM) was 104%, the viability, T/C (second compound 3.16 µM, first compound 0.1 µM) was 84.9% and the viability, T/C (second compound 3.16 µM, first compound 0.316 µM) was 66.2%. It also gave a viability, T/C (second compound 3.16 µM, first compound 1 µM) of 62.2%, a viability, T/C (second compound 3.16 µM, first compound 3.16 µM) of 58% and a viability, T/C (second compound 3.16 µM, first compound 10 µM) of 2.91%. It also gave a viability, T/C (second compound 10 µM, first compound 0.0316 µM) of 89.1%, a viability, T/C (second compound 10 µM, first compound 0.1 µM) of 70.8% and a viability, T/C (second compound 10 µM, first compound 0.316 µM) of 82.7%. It also gave a viability, T/C (second compound 10 µM, first compound 1 µM) of 57.1%, a viability, T/C (second compound 10 µM, first compound 3.16 µM) of 55.9% and a viability, T/C (second compound 10 µM, first compound 10 µM) of 2.88%.

`CC(Nc1ccc2c(c1)OCCn1cc(N3C(=O)OCC3C(F)F)nc1-2)C(N)=O` (stereo unspecified) + CCn1c(-c2cc(N3CCN(C)CC3)cnc2C(C)OC)c2c3cc(ccc31)-c1csc(n1)CC(NC(=O)C1CC1C)C(=O)N1CCCC(N1)C(=O)OCC(C)(C)C2 was tested, and the IC50 (second compound 0.000949 µM) was > 10 µM, the IC50 (second compound 0.003 µM) was > 10 µM and the IC50 (second compound 0.00949 µM) was 7.94 µM. For the same compound, the IC50 (second compound 0.03 µM) was 7.65 µM, the IC50 (second compound 0.0949 µM) was 2.11 µM and the IC50 (second compound 0.3 µM) was > 10 µM. The viability, T/C [1] was 100%, the viability, T/C [2] was 91.9% and the viability, T/C [3] was 71.8%. For the same compound, the viability, T/C [4] was 79.8%, the viability, T/C [5] was 70.5% and the viability, T/C [6] was 51.1%. For the same compound, the viability, T/C [7] was 92.8%, the viability, T/C [8] was 74.8% and the viability, T/C [9] was 73.7%. For the same compound, the viability, T/C [10] was 72%, the viability, T/C [11] was 61.3% and the viability, T/C [12] was 47%. For the same compound, the viability, T/C [13] was 81.5%, the viability, T/C [14] was 72.7% and the viability, T/C [15] was 76.9%. It also gave a viability, T/C [16] of 76.1%, a viability, T/C [17] of 62.2% and a viability, T/C [18] of 46.7%. For the same compound, the viability, T/C [19] was 75.9%, the viability, T/C [20] was 78.5% and the viability, T/C [21] was 69.3%. It also gave a viability, T/C [22] of 60.5%, a viability, T/C [23] of 58% and a viability, T/C [24] of 48.1%. For the same compound, the viability, T/C [25] was 66.9%, the viability, T/C [26] was 83.7% and the viability, T/C [27] was 77.1%. It also gave a viability, T/C [28] of 51.9%, a viability, T/C [29] of 56.8% and a viability, T/C [30] of 41.2%. For the same compound, the viability, T/C [31] was 75.6%, the viability, T/C [32] was 72.3% and the viability, T/C [33] was 57.6%. The viability, T/C [34] was 57.7%, the viability, T/C [35] was 51.3% and the viability, T/C [36] was 51.2%.

With `C[C@@H](NC(=O)c1ncnc(N)c1Cl)c1ncc(C(=O)Nc2cc(C(F)(F)F)c(Cl)cn2)s1` + CCn1c(-c2cc(N3CCN(C)CC3)cnc2C(C)OC)c2c3cc(ccc31)-c1csc(n1)CC(NC(=O)C1CC1C)C(=O)N1CCCC(N1)C(=O)OCC(C)(C)C2 the IC50 (second compound 0.000949 µM) was > 10 µM, the IC50 (second compound 0.003 µM) was > 10 µM and the IC50 (second compound 0.00949 µM) was > 10 µM. The IC50 (second compound 0.03 µM) was > 10 µM, the IC50 (second compound 0.0949 µM) was 2.38 µM and the IC50 (second compound 0.3 µM) was 4.37 µM. It also gave a viability, T/C [1] of 102%, a viability, T/C [2] of 92.3% and a viability, T/C [3] of 83.9%. The viability, T/C [4] was 67.5%, the viability, T/C [5] was 83.7% and the viability, T/C [6] was 83.8%. It also gave a viability, T/C [7] of 86.6%, a viability, T/C [8] of 97.8% and a viability, T/C [9] of 92.4%. The viability, T/C [10] was 84.1%, the viability, T/C [11] was 71.7% and the viability, T/C [12] was 58.1%. For the same compound, the viability, T/C [13] was 92.7%, the viability, T/C [14] was 90.9% and the viability, T/C [15] was 74%. It also gave a viability, T/C [16] of 74%, a viability, T/C [17] of 57.6% and a viability, T/C [18] of 56.2%. For the same compound, the viability, T/C [19] was 92.1%, the viability, T/C [20] was 77.6% and the viability, T/C [21] was 89.5%. The viability, T/C [22] was 55.8%, the viability, T/C [23] was 56.3% and the viability, T/C [24] was 43.8%. The viability, T/C [25] was 78.2%, the viability, T/C [26] was 80.3% and the viability, T/C [27] was 59.7%. The viability, T/C [28] was 51.4%, the viability, T/C [29] was 56.1% and the viability, T/C [30] was 36.2%. The viability, T/C [31] was 85.4%, the viability, T/C [32] was 69.6% and the viability, T/C [33] was 65.5%. For the same compound, the viability, T/C [34] was 58.7%, the viability, T/C [35] was 57% and the viability, T/C [36] was 42.3%.
